Measured values as given in the supplement of paper PMC4862054.

How the values were obtained:
Assay in all cases: normalised viability (% of control), CellTiter-Blue; higher = more viable cells (about 100 = DMSO control)
Conditions in all cases: incubation time: 72 h
[1] = system: BT-474
Protocol: (§1)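 DSRT, CellTiter-Blue viability, 72 h incubation. Signal is normalised to DMSO and benzethonium chloride controls. Value is the normalised response at dose 3.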

[2] = system: BT-549
Protocol: as §1

[3] = system: CAL-120
Protocol: as §1

[4] = system: CAL-148
Protocol: as §1

[5] = system: CAL-51
Protocol: as §1

[6] = system: CAL-85-1
Protocol: as §1

[7] = system: DU-4475
Protocol: as §1

[8] = system: HCC1143
Protocol: as §1

[9] = system: HCC1599
Protocol: as §1

[10] = system: HCC1937
Protocol: as §1

[11] = system: HDQ-P1
Protocol: as §1

[12] = system: Hs578T
Protocol: as §1

[13] = system: MDA-MB-231
Protocol: as §1

[14] = system: MDA-MB-436
Protocol: as §1

[15] = system: MDA-MB-453
Protocol: as §1

[16] = system: MDA-MB-468
Protocol: as §1

[17] = system: MFM-223
Protocol: as §1

[18] = system: SK-BR-3
Protocol: as §1

[19] = system: CAL-148; remark: listed apart in the source
Protocol: (§2)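 DSRT, CellTiter-Blue viability, 72 h incubation. Signal is normalised to DMSO and benzethonium chloride controls. Value is the normalised response at dose 6.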

[20] = system: CAL-51; remark: listed apart in the source
Protocol: as §2

[21] = system: CAL-85-1; remark: listed apart in the source
Protocol: as §2

[22] = system: DU-4475; remark: listed apart in the source
Protocol: as §2

[23] = system: HDQ-P1; remark: listed apart in the source
Protocol: as §2

[24] = system: MDA-MB-453; remark: listed apart in the source
Protocol: as §2

[25] = system: CAL-148; remark: listed apart in the source
Protocol: (§3)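 DSRT, CellTiter-Blue viability, 72 h incubation. Signal is normalised to DMSO and benzethonium chloride controls. Value is the normalised response at dose 9.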

[26] = system: CAL-51; remark: listed apart in the source
Protocol: as §3

[27] = system: CAL-85-1; remark: listed apart in the source
Protocol: as §3

[28] = system: DU-4475; remark: listed apart in the source
Protocol: as §3

[29] = system: HDQ-P1; remark: listed apart in the source
Protocol: as §3

[30] = system: MDA-MB-453; remark: listed apart in the source
Protocol: as §3

CCN(CC)CCCC(C)Nc1c2ccc(Cl)cc2nc2ccc(OC)cc12 (stereo not given) [Mepacrine]
Conditions | normalised viability [%]
[1], 9.9 nM | 113
[1], 100 nM | 109
[2], 9.9 nM | 86.1
[2], 100 nM | 90.3
[3], 9.9 nM | 117
[3], 100 nM | 104
[4], 0.99 nM | 116
[4], 10 nM | 107
[5], 0.99 nM | 95.9
[5], 10 nM | 99.6
[6], 0.99 nM | 99
[6], 10 nM | 92.6
[7], 0.99 nM | 83.1
[7], 10 nM | 96.4
[8], 9.9 nM | 130
[8], 100 nM | 106
[9], 9.9 nM | 88.2
[9], 100 nM | 88.9
[10], 9.9 nM | 99.4
[10], 100 nM | 87.4
[11], 0.99 nM | 117
[11], 10 nM | 114
[12], 9.9 nM | 114
[12], 100 nM | 110
[13], 9.9 nM | 95.2
[13], 100 nM | 89.8
[14], 9.9 nM | 108
[14], 100 nM | 91.3
[15], 0.99 nM | 98.4
[15], 10 nM | 100
[16], 9.9 nM | 110
[16], 100 nM | 105
[17], 9.9 nM | 97
[17], 100 nM | 97.9
[18], 9.9 nM | 99.8
[18], 100 nM | 91.3
[19], 29.7 nM | 105
[19], 300 nM | 102
[20], 29.7 nM | 86.1
[20], 300 nM | 104
[21], 29.7 nM | 101
[21], 300 nM | 100
[22], 29.7 nM | 88.3
[22], 300 nM | 80.9
[23], 29.7 nM | 117
[23], 300 nM | 109
[24], 29.7 nM | 103
[24], 300 nM | 101
[25], 990 nM | 35.4
[25], 10000 nM | 12.4
[26], 990 nM | 34.9
[26], 10000 nM | 12.3
[27], 990 nM | 44.1
[27], 10000 nM | 15.1
[28], 990 nM | 30.9
[28], 10000 nM | 4.09
[29], 990 nM | 23.8
[29], 10000 nM | 6.19
[30], 990 nM | 15.7
[30], 10000 nM | 2.2

O=C(/C=C/c1cccnc1)NCCCCC1CCN(C(=O)c2ccccc2)CC1 [FK-866]
Conditions | normalised viability [%]
[1], 10 nM | 91.6
[2], 10 nM | 38.6
[3], 10 nM | 55
[4], 1 nM | 91.5
[5], 1 nM | 102
[6], 1 nM | 103
[7], 1 nM | 84.9
[8], 10 nM | 43.2
[9], 10 nM | 74.7
[10], 10 nM | 91.1
[11], 1 nM | 120
[12], 10 nM | 20.1
[13], 10 nM | 83.1
[14], 10 nM | 38
[15], 1 nM | 86.1
[16], 10 nM | 8.4
[17], 10 nM | 23.2
[18], 10 nM | 91.2
[19], 30 nM | 73.7
[20], 30 nM | 48.8
[21], 30 nM | 72.4
[22], 30 nM | 31.4
[23], 30 nM | 64.3
[24], 30 nM | 23.8
[25], 1000 nM | 44.2
[26], 1000 nM | 34
[27], 1000 nM | 49.2
[28], 1000 nM | 3.53
[29], 1000 nM | 58.5
[30], 1000 nM | 19.9
